Test results as given in US12133895B2, “Biodegradable functional polycarbonate nanoparticle carries for delivering molecular cargo” (International Business Machines Corporation, priority 2018, dated 2024).

Assay: Oxidation (discoloration) of AMP in PBS
Assay type: physicochemical
Details: free AMP dissolved in PBS
Excerpt: FIG. 10 illustrates a diagram of example, non-limiting photos 1000 of a first solution of free AMP and a second solution of the second loaded polymer 602 having the exemplary structure depicted in FIG. 6 (e.g., conjugated with AMP) in accordance with one or more embodiments described herein. Repetitive description of like elements employed in other embodiments described herein is omitted for sake of brevity. As shown in the photos 1000, the right vial contains free AMP dispersed in PBS, and the left vial contains of the second loaded polymer 602 having the exemplary structure depicted in FIG. 6 (e.g., conjugated with AMP) dispersed in PBS. The various photos 1000 can show the state of the two solutions over a 360 minute time period.
Both solutions begin colorless, wherein the solutions become discolored in response to oxidation.

With `CN1CCc2cccc3c2[C@H]1Cc1ccc(O)c(O)c1-3` [AMP, apomorphine] the onset of oxidation was “nearly immediately”.
